Data set [1] relates to Vero E6 cells.
Data set [2] concerns SARS-CoV-2. The data set can be described thus: microbe, parasite or virus in culture. Format: cell-based, SARS-CoV-2 clinical isolate 2019-nCoV/USA-WA1/2020.
In data set [3] the test system is Calu3 2B4 cells. The conditions noted are these: human.
Data set [4] relates to Calu3 2B4 cells.
Data set [5] deals with SARS-CoV-2. The data set is described as follows: microbe, parasite or virus in culture. In kind it is cell-based, SARS-CoV-2 clinical isolate 2019-nCoV/USA-WA1/2020. This is another data set of the same source.
Data set [6] concerns SARS-CoV-2. Format: cell-based, SARS-CoV-2 clinical isolate 2019-nCoV/USA-WA1/2020.
For data set [7], the system named is HAE cultures.
The subject of data set [8] is HAE cultures. As to conditions: female, human.
Data set [9] relates to Vero E6 cells. This is another data set of the same source.
The mark [10] stands for this setting: Severe acute respiratory syndrome coronavirus 2, Calu-3 2B4, read-out: EC90 (infectious viral titer).
Where [11] appears, read: Severe acute respiratory syndrome coronavirus 2, Calu-3 2B4, read-out: EC90 (qRT-PCR).
The mark [12] stands for this setting: Severe acute respiratory syndrome coronavirus 2, Calu-3 2B4, read-out: Genome copy EC50.
Setting [13] is: Severe acute respiratory syndrome coronavirus 2, Calu-3 2B4, read-out: Plaque assay EC50.

The structures appear in SMILES notation. Read-outs that look alike come from different tables or passages of the source. Marks after values point to notes of the source that are not given here.

For the compound `N#C[C@@]1(c2ccc3c(N)ncnn23)O[C@H](CO)[C@@H](O)[C@H]1O` [GS-441524], the cytotoxicity entry in [1] and in data set [4] was “No significant cytotoxicity” each time. The concentration for an effect of 90% (EC90) in data set [2] (Severe acute respiratory syndrome coronavirus 2, Vero C1008, read-out: EC90 (infectious viral titer)) was found to be 710 nM; in data set [2] (Severe acute respiratory syndrome coronavirus 2, Vero C1008, read-out: EC90 (qRT-PCR)), 800 nM; in data set [5] (setting [10]), 1340 nM; in data set [5] (setting [11]), 1370 nM. Besides, in [3], the “RDV-TP at 24 h” value is recorded as 0.85 ± 0.16 ^e pmol/million cells. The EC50 in data set [5] (setting [12]) stood at 1090 nM; in [5] (setting [13]) it was 620 nM.
For `CCC(CC)COC(=O)[C@H](C)N[P@](=O)(OC[C@H]1O[C@@](C#N)(c2ccc3c(N)ncnn23)[C@H](O)[C@@H]1O)Oc1ccccc1` [RDV, Remdesivir], in [6], the “inhibition of infectious virus production” value was “more than 100 fold”. The results for the cytotoxicity result in data set [1], in data set [7] and in data set [4] were “No significant cytotoxicity”, “did not cause cytotoxicity” and “No significant cytotoxicity”, respectively. For the same compound, in data set [8], the “difference in RDV-TP between the two HAE donor cultures” value was “less than 3 fold”. Moreover, the figures for the EC90 in [5] (setting [10]) and in data set [5] (setting [11]) were 2480 nM and 1280 nM, respectively. The EC50 in [5] (setting [12]) was determined as 600 nM; in data set [5] (setting [13]) it was 280 nM. Besides, in data set [9] (African green monkey), the “RDV-TP at 24 h” value was 0.50 ± 0.15 ^d pmol/million cells. In addition, the “RDV-TP levels in Vero E6 cells lower than in HAE cultures” value in [9] (African green monkey) is listed as around 20 fold. Further, in data set [9] (African green monkey (Vero E6) and human (Calu3 2B4)), the “RDV-TP levels in Vero E6 cells lower than in Calu3 2B4” value is “approximately 4 fold”.

The values are drawn from publication PMC7340027 (Cell Reports, 2020).
